In patent US10051861B2, “N-arylamidine-substituted trifluoroethyl sulfide derivatives as acaricides and insecticides” (BAYER CROPSCIENCE AG, priority 2011, dated 2018):

Test system: greenhouse red spider mite (Tetranychus urticae)
Experiment: Tetranychus urticae spray test, OP-resistant (TETRUR), bean leaf disks
Assay type: in vivo
Conditions: Tetranychus urticae, foliar, 144 h, application rate 500 g/ha, after 6 days; read-out: efficacy (spider mites killed)
Description: After 6 days, the effect in % is determined.

SMILES	pest or weed control at 500 g/ha [%]
Cc1cc(F)c(/N=C(\c2ccccc2C(F)(F)F)N(C)C)cc1SCC(F)(F)F [Ia-245]	90
Cc1cc(F)c(/N=C(\NC2CCS(=O)(=O)C2)C2CC2)cc1SCC(F)(F)F (stereo not drawn) [Ia-247]	100
CN/C(=N\c1cc(SCC(F)(F)F)c(Cl)cc1Cl)c1ccccn1 [Ia-248]	90
C#CCN/C(=N\c1cc(SCC(F)(F)F)c(C)cc1F)C1CC1 [Ia-249]	100
COc1cc(C)c(SCC(F)(F)F)cc1/N=C(/c1ccc(Cl)cc1)N(C)C [Ia-252]	90
FC(F)CN/C(=N\c1cc(SCC(F)(F)F)c(Cl)cc1Cl)C1CC1 [Ia-253]	90
FC(F)(F)CN/C(=N\c1cc(SCC(F)(F)F)c(Cl)cc1Cl)C1CCCC1 [Ia-254]	90
COc1cc(C)c(SCC(F)(F)F)cc1/N=C(\N)C1(Cl)CC1 [Ia-255]	90
FC(F)CN/C(=N\c1cc(SCC(F)(F)F)c(Cl)cc1Cl)C1CCCC1 [Ia-256]	90
Cc1cc(C)c(SCC(F)(F)F)cc1/N=C(\NCC(F)F)C1CCCC1 [Ia-257]	90
COC/C(N)=N/c1cc(SCC(F)(F)F)c(Cl)cc1Cl [Ia-258]	90
FC(F)(F)CN/C(=N\c1cc(SCC(F)(F)F)c(Cl)cc1Cl)C1CCC1 [Ia-259]	90
COc1cc(C)c(SCC(F)(F)F)cc1/N=C(\N)c1ccncn1 [Ia-260]	90
Cc1cc(F)c(/N=C(\NCC(F)(F)F)C2CCC2)cc1SCC(F)(F)F [Ia-261]	90
N/C(=N\c1cc(SCC(F)(F)F)c(Cl)cc1Cl)C1CCCO1 (stereo not drawn) [Ia-262]	90
COc1ccc(/C(N)=N\c2cc(SCC(F)(F)F)c(C)cc2F)cc1 [Ia-263]	90
CN/C(=N\c1cc(SCC(F)(F)F)c(Cl)cc1Cl)c1ccc(C(F)(F)F)nc1 [Ia-264]	90
CN/C(=N\c1cc(SCC(F)(F)F)c(C)cc1C)c1cccc(Cl)c1 [Ia-265]	90
N/C(=N\c1cc(SCC(F)(F)F)c(Cl)cc1Cl)c1ccc(Cl)cc1 [Ia-266]	90
Cc1cc(C)c(SCC(F)(F)F)cc1/N=C(\NCC(F)(F)F)C1CCC1 [Ia-267]	90
Cc1cc(F)c(/N=C(/c2cccnc2)N2CCC(F)(F)CC2)cc1SCC(F)(F)F [Ia-269]	90
Cc1cc(F)c(/N=C(/c2ccc(Cl)cc2)N2CCC(F)(F)CC2)cc1SCC(F)(F)F [Ia-270]	90
Cc1cc(C)c(SCC(F)(F)F)cc1/N=C1\SCC(=O)N1CC(F)(F)F [Ia-272]	100
Cc1cc(Cl)c(/N=C2\SCC(=O)N2CC(F)(F)F)cc1SCC(F)(F)F [Ia-275]	100
Cc1cc(F)c(/N=c2\scc(C3(Cl)CC3)n2CC(F)(F)F)cc1SCC(F)(F)F [Ia-276]	100

SMILES	pest or weed control at 500 g/ha [%]
Cc1cc(F)c(/N=C(\N)C2(Cl)CC2)cc1[S+]([O-])CC(F)(F)F (stereo not drawn) [Ib-22]	100
CCN(C)/C(=N/c1cc([S+]([O-])CC(F)(F)F)c(C)cc1F)C(F)(F)F (stereo not drawn) [Ib-23]	90
CN(C)/C(=N/c1cc([S+]([O-])CC(F)(F)F)c(Br)cc1Br)C(F)(F)F (stereo not drawn) [Ib-25]	100
CN(C)/C(=N/c1cc([S+]([O-])CC(F)(F)F)c(Cl)cc1Cl)C(F)(F)F (stereo not drawn) [Ib-26]	100
CN/C(=N\c1cc([S+]([O-])CC(F)(F)F)c(C)cc1F)c1cccnc1 (stereo not drawn) [Ib-28, N′-{2-Fluoro-4-methyl-5-[(2,2,2-trifluoroethyl)sulfinyl]phenyl}-N-methylpyridine-3-carboximidamide]	100
Cc1cc(F)c(/N=C(/NCC2CC2)C(F)(F)F)cc1[S+]([O-])CC(F)(F)F (stereo not drawn) [Ib-29]	100
Cc1cc(Cl)c(/N=C(\N)C(F)(F)C(F)(F)Cl)cc1[S+]([O-])CC(F)(F)F (stereo not drawn) [Ib-31]	100
CN(C)/C(=N/c1cc([S+]([O-])CC(F)(F)F)c(Cl)cc1F)C(F)(F)F (stereo not drawn) [Ib-32]	100
CCN(CC)/C(=N/c1cc([S+]([O-])CC(F)(F)F)c(C)cc1F)C(F)(F)F (stereo not drawn) [Ib-34]	100
Cc1cc(F)c(/N=C(/NC2(C)CC2)C(F)(F)F)cc1[S+]([O-])CC(F)(F)F (stereo not drawn) [Ib-36]	100
CN/C(=N\c1cc([S+]([O-])CC(F)(F)F)c(C)cc1F)c1ccc(Cl)cc1 (stereo not drawn) [Ib-37]	100
CN/C(=N/c1cc([S+]([O-])CC(F)(F)F)c(Cl)cc1F)C(F)(F)F (stereo not drawn) [Ib-41]	90
Cc1cc(F)c(/N=C(\N)c2ccccn2)cc1[S+]([O-])CC(F)(F)F (stereo not drawn) [Ib-45]	100
CCN/C(=N\c1cc([S+]([O-])CC(F)(F)F)c(C)cc1F)C1CC1 (stereo not drawn) [Ib-46]	100
Cc1cc(F)c(/N=C(/NC(C)(C)C)C(F)(F)F)cc1[S+]([O-])CC(F)(F)F (stereo not drawn) [Ib-50]	100
Cc1cc(F)c(/N=C(/C2CC2)N(C)C)cc1[S+]([O-])CC(F)(F)F (stereo not drawn) [Ib-51]	100
Cc1cc(F)c(/N=C2\CCCCN2C)cc1[S+]([O-])CC(F)(F)F (stereo not drawn) [Ib-52]	100
Cc1cc(F)c(/N=C(\N)C2CC2)cc1[S+]([O-])CC(F)(F)F (stereo not drawn) [Ib-53]	100
Cc1cc(F)c(/N=C(/NC2COC2)C(F)(F)F)cc1[S+]([O-])CC(F)(F)F (stereo not drawn) [Ib-54]	90
Cc1cc(F)c(/N=C(\c2ccc(F)cc2)N(C)C)cc1[S+]([O-])CC(F)(F)F (stereo not drawn) [Ib-60]	90
Cc1cc(F)c(/N=C(\c2ccc(C#N)cc2)N(C)C)cc1[S+]([O-])CC(F)(F)F (stereo not drawn) [Ib-61]	100
Cc1cc(F)c(/N=C(\N)c2cccnc2)cc1[S+]([O-])CC(F)(F)F (stereo not drawn) [Ib-63]	100
N/C(=N\c1cc([S+]([O-])CC(F)(F)F)c(Cl)cc1Cl)C1(Cl)CC1 (stereo not drawn) [Ib-64]	100
Cc1cc(F)c(/N=C(\N)c2ccncn2)cc1[S+]([O-])CC(F)(F)F (stereo not drawn) [Ib-65]	100
Cc1cc(F)c(/N=C(\c2cccc(F)c2)N(C)C)cc1[S+]([O-])CC(F)(F)F (stereo not drawn) [Ib-66]	90

SMILES	pest or weed control at 500 g/ha [%]
CN/C(=N/c1cc([S+]([O-])CC(F)(F)F)c(C)cc1F)c1cccc(F)c1 (stereo not drawn) [Ib-67]	90
N/C(=N\c1cc([S+]([O-])CC(F)(F)F)c(Cl)cc1Cl)c1ccncn1 (stereo not drawn) [Ib-69]	100
Cc1cc(F)c(/N=C(\N)C2(C#N)CC2)cc1[S+]([O-])CC(F)(F)F (stereo not drawn) [Ib-72]	100
Cc1cc(F)c(/N=C(/c2ccc(Cl)cc2)N(C)C)cc1[S+]([O-])CC(F)(F)F (stereo not drawn) [Ib-73]	90
Cc1cc(F)c(/N=C(/NCc2ccccc2)C(F)(F)F)cc1[S+]([O-])CC(F)(F)F (stereo not drawn) [Ib-74]	90
Cc1cc(F)c(/N=C(\c2ccc(C(F)(F)F)nc2)N(C)C)cc1[S+]([O-])CC(F)(F)F (stereo not drawn) [Ib-75]	100
CN/C(=N\c1cc([S+]([O-])CC(F)(F)F)c(C)cc1F)c1cccc(Cl)c1 (stereo not drawn) [Ib-76]	100
Cc1cc(C)c([S+]([O-])CC(F)(F)F)cc1/N=C(\N)C1(Cl)CC1 (stereo not drawn) [Ib-79]	100
N/C(=N\c1cc([S+]([O-])CC(F)(F)F)c(Cl)cc1Cl)C(F)F (stereo not drawn) [Ib-80]	100
Cc1cc(F)c(/N=C(\c2cccs2)N(C)C)cc1[S+]([O-])CC(F)(F)F (stereo not drawn) [Ib-81]	100
Cc1cc(F)c(/N=C(\c2cccn2C)N(C)C)cc1[S+]([O-])CC(F)(F)F (stereo not drawn) [Ib-82]	100
CCN/C(=N\c1cc([S+]([O-])CC(F)(F)F)c(C)cc1F)c1cccnc1 (stereo not drawn) [Ib-84]	100
Cc1cc(F)c(/N=C(\c2ccccc2F)N(C)C)cc1[S+]([O-])CC(F)(F)F (stereo not drawn) [Ib-87]	100
Cc1cc(F)c(/N=C(\NC2CC2)c2ccc(Cl)nc2)cc1[S+]([O-])CC(F)(F)F (stereo not drawn) [Ib-88]	100
CN/C(=N\c1cc([S+]([O-])CC(F)(F)F)c(Cl)cc1C)C(F)(F)F (stereo not drawn) [Ib-90]	100
Cc1cc(F)c(/N=C(/NC2CS(=O)(=O)C2)C(F)(F)F)cc1[S+]([O-])CC(F)(F)F (stereo not drawn) [Ib-91]	90
CN/C(=N/c1cc([S+]([O-])CC(F)(F)F)c(C)cc1F)c1ccc(C(F)(F)F)nc1 (stereo not drawn) [Ib-92]	100
Cc1cc(C)c([S+]([O-])CC(F)(F)F)cc1/N=C(\N)c1ccc(Cl)nc1 (stereo not drawn) [Ib-94]	100
CN/C(=N\c1cc([S+]([O-])CC(F)(F)F)c(Cl)cc1Cl)c1cccnc1 (stereo not drawn) [Ib-95]	100
Cc1cc(F)c(/N=C(/N2CCCC2)C(F)(F)F)cc1[S+]([O-])CC(F)(F)F (stereo not drawn) [Ib-96]	90
CN/C(=N\c1cc([S+]([O-])CC(F)(F)F)c(C)cc1F)c1ccncc1 (stereo not drawn) [Ib-97]	100
Cc1cc(C)c([S+]([O-])CC(F)(F)F)cc1/N=C(/c1cccnc1)N(C)C (stereo not drawn) [Ib-98]	100
Cc1cc(F)c(/N=C(\N)C2CCC2)cc1[S+]([O-])CC(F)(F)F (stereo not drawn) [Ib-99]	100
CN/C(=N\c1cc([S+]([O-])CC(F)(F)F)c(C)cc1C)c1ccc(Cl)cc1 (stereo not drawn) [Ib-100]	100
Cc1cc(C)c([S+]([O-])CC(F)(F)F)cc1/N=C(\N)c1ccccn1 (stereo not drawn) [Ib-102]	90

Same assay, conditions: Tetranychus urticae, foliar, 144 h, read-out: efficacy (spider mites killed)

SMILES	pest or weed control at 500 g/ha [%]
COc1cc(C)c(SCC(F)(F)F)cc1/N=C(/c1ccc(Cl)cc1)N1CCOCC1 [Ia-268, N-[(4-Chlorophenyl)(morpholin-4-yl)methylene]-2-methoxy-4-methyl-5-[(2,2,2-trifluoroethyl)sulfanyl]aniline]	90

Same assay, conditions: application rate 500 g/ha, after 6 days

SMILES	efficacy (spider mites killed) [%]
Cc1cc(F)c(/N=C(\c2ccc(C#N)cc2)N(C)C)cc1[S+]([O-])CC(F)(F)F (stereo not drawn) [Ib-77]	90
CN/C(=N\c1cc([S+]([O-])CC(F)(F)F)c(C)cc1F)c1cccnc1 (stereo not drawn) [Ib-93]	100
